The text below walks through data of EP4588510A1, “OPENING/CLOSING CONTROL DEVICE FOR TARGET FORCE-SENSITIVE ION CHANNEL THAT GENERATES SOUND WAVE PATTERN BY USING RESONANCE FREQUENCY(IES), AND BRAIN FUNCTION CONTROL DEVICE” (UIF (University Industry Foundation), Yonsei University, priority 2022, dated 2024).

This experiment has as its target T1, Piezo1 ion channel (Mus musculus, UniProt E2JF22).
T1 construct: expressed in transfected cells; host or cells: HEK293
Description: c-Fos immunostaining of cellular activation in HEK293 cells expressing Piezo1. The format is cell-based. Conditions: Yoda1 10 µM, Fig. 2, Group F. As to the method: As a model system, HEK293 cells were utilized, and the Piezo1 ion channel, a mechanosensitive ion channel, was expressed in these cells to enable responsiveness to mechanical forces. To achieve this, 5×10^5 cells were seeded in a 60 mm dish, and 5 µg of CMV-Piezo1 plasmid was transfected using Lipofectamine 3000, following the standard protocol.
HEK293 cells expressing Piezo1 were then exposed to two different ultrasound frequencies, 2.0 MHz and 6.25 MHz, for 10 minutes, corresponding to the resonance frequency(ies) of Piezo1 in HEK293 cells. The objective was to observe differences in cellular activation based on frequency. The extent of cellular activation was quantified by immunostaining for c-Fos, a reporter of intracellular calcium ion influx, and the number of activated cells was represented as a percentage.

The structures appear in SMILES notation.

T1 sequence (E2JF22 whole entry): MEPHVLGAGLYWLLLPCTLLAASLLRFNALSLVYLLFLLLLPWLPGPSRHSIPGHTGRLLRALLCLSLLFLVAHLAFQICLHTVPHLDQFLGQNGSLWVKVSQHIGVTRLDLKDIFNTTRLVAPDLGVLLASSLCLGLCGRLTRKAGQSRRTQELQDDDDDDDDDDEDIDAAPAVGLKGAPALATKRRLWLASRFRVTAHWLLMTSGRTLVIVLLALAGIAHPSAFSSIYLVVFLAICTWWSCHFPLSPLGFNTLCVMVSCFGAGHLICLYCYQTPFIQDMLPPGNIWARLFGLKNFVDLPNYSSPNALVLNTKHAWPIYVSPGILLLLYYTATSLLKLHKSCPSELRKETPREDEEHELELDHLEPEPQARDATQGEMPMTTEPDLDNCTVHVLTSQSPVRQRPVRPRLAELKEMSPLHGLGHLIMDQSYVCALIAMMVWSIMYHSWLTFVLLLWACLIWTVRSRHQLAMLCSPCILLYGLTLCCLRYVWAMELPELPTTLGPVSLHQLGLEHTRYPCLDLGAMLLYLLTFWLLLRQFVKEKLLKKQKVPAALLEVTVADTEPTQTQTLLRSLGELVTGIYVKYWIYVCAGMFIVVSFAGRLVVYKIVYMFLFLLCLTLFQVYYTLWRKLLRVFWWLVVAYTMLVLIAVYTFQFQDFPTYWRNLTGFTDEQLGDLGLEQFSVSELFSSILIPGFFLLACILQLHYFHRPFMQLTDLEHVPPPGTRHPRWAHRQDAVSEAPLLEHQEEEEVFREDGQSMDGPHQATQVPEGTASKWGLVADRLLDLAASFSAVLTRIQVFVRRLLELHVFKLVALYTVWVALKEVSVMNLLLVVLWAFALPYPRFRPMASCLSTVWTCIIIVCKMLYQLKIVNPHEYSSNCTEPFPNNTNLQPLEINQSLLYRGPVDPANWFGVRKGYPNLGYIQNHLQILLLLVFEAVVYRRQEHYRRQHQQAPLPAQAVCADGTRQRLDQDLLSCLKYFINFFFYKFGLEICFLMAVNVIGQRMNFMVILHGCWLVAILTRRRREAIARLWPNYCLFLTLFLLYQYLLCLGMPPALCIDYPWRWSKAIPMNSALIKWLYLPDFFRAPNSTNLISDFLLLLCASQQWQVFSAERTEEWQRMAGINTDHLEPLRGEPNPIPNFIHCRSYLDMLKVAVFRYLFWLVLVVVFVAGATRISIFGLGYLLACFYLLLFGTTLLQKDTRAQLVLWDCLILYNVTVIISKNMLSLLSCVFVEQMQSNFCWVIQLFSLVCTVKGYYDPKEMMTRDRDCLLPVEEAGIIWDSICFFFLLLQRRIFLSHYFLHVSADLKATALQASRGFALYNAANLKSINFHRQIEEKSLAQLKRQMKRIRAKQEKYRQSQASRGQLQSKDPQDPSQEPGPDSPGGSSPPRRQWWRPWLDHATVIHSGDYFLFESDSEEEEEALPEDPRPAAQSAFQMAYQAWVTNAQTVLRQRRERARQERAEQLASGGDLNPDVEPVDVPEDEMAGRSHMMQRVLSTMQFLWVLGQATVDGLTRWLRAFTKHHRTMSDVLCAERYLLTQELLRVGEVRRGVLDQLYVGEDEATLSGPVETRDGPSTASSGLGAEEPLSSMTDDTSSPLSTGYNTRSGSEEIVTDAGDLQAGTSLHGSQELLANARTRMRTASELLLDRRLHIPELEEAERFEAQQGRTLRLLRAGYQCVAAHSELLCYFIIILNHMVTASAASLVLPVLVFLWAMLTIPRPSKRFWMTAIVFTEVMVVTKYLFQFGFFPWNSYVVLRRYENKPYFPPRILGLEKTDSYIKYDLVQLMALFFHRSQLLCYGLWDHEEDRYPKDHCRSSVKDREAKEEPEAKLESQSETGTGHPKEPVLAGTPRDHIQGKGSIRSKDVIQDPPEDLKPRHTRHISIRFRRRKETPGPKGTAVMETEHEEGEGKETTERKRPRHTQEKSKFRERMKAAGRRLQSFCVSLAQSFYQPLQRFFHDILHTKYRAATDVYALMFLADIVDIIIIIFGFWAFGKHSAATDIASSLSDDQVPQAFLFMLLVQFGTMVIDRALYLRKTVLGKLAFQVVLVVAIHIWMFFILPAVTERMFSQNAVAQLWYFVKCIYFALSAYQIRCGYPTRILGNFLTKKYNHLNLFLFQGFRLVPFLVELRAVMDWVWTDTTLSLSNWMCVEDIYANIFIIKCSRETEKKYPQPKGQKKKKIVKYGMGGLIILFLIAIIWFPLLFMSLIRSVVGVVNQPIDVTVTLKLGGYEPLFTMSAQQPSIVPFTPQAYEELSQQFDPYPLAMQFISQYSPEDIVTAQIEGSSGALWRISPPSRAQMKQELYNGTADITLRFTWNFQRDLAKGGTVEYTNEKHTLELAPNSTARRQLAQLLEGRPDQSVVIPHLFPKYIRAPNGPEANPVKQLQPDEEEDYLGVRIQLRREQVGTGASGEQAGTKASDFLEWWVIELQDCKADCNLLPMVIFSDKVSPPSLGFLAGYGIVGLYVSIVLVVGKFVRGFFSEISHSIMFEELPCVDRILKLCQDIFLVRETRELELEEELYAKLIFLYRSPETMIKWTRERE

In the case of `Clc1cccc(Cl)c1CSc1nnc(-c2cnccn2)s1` [Yoda1], the “activation (percentage of activated cells, c-Fos)” value amounted to 74%.
